| Compound | melting point [°C] |
| --- | --- |
| O=C(c1nc(-c2ccccc2)nc2ccccc12)N1CCCC(CO)C1 (stereo not drawn) | 142 |
| CCOC(=O)c1ccc(-c2ncc(C#Cc3ccccc3)s2)s1 | 137 to 141 |
| Cc1cc(Oc2ccc(Cl)c(C(F)(F)F)c2)ncc1N | 105 to 107 |
| CCCOc1nc2c(Cl)scc2c(=O)n1CCC | 93 to 95 |
| O=C(Cn1ncc(-c2ccccc2)c1-c1ccccc1)NCCN1CCCCC1 | 95 to 97 |
| NC(=O)N(O)CCNC(=O)c1cc2ccccc2o1 | 181 to 182 |
| Cc1c(Oc2ccc(C(=O)NC(C)C)cc2)c2cc(F)ccc2n1CC(=O)O | 218 to 219 |
| CC(C)(C)c1cc(C=C2SCN(CC(N)=O)C2=O)cc(C(C)(C)C)c1O | 232 |
| Fc1ccc(-c2nn3c(c2-c2ccncc2)NCC3)cc1 | 213 to 214 |
| CCCOC(=O)CS(=O)(=O)C=C1SC=CS1 | 141 to 142 |
| CCC(NC(=NC#N)Nc1cccnc1)c1cccc(Cl)c1 (stereo not drawn) | 153 to 155 |
| CN(C)c1nc(CSCCNC2=NS(=O)N=C2N)cs1 (stereo not drawn) | 116 to 122 |
| CC(C)NC(=O)c1nc(Cl)c(Cl)[nH]1 | 150 |
| N#Cc1ccc(-n2c(=O)cc(C(F)(F)F)[nH]c2=O)cc1[N+](=O)[O-] | 135 |
| CCOC(=O)c1c(-c2ccccc2Cl)c2cc(C)cc(C)c2[nH]c1=O | 257 to 258 |
| C=Cc1c(C#N)nn(-c2c(Cl)cc(C(F)(F)F)cc2Cl)c1Cl | 69.8 to 70.4 |
| CCOC(=O)C1=C(C)NC(CCN(C)C)=C(C(=O)OCC)C1c1ccccc1/C=C/C(=O)OC(C)(C)C (stereo not drawn) | 150 to 151 |
| CCCCCCCCOc1ccc(-c2ccc(NC(=O)N(O)C(CC)CC)cc2)cc1 | 151 to 152 |
| CCCCCCCCCOc1cc(C(N)=O)ccn1 | 108 to 110 |
| CONC(=O)N1N=C(c2ccc([N+](=O)[O-])c(C)c2)c2cc3c(cc2CC1C)OCO3 (stereo not drawn) | 192 to 195 |
| CCOc1c(Nc2ccncc2)c(=O)c1=O | 120 to 125 |
| CCCCCCCCCc1ccc(-c2ccc(OCC(C)CC)nn2)cc1 (stereo not drawn) | 78 |
| CC(C)(C)OC(=O)c1ncn2c1[C@@H]1CCCN1C(=O)c1c-2ccc(N)c1Br | 245 to 246 |
| O=CNc1cc(F)ccc1F | 112 to 114 |
| O=C1CC(c2ccccc2)c2cccc(CCN3CCN(c4nsc5ccccc45)CC3)c2N1 (stereo not drawn) | 227 |
| O=C1CN(C(=O)c2ccccc2Cl)c2ccccc2N1 | 222 to 224 |

| Compound | melting point [°C] |
| --- | --- |
| COC(=O)C(C)Oc1ccc(Oc2ccc(C(F)(F)F)cc2)cc1 (stereo not drawn) | 142 |
| CC(=O)OCc1ccc(C=O)cc1 | 32 |
| C=C(c1ccccc1)C(c1ccc(F)cc1)C(O)n1ncnc1S (stereo not drawn) | 54 to 58 |
| Cc1cc(Cl)ccc1N1C(=O)CON(C)C1=S | 141 to 143 |
| FC(F)(F)c1cccc(-c2ccc3nncn3n2)c1 | 140 to 143 |
| COc1ccc(Cc2nc3c(cnn3C(CCCc3ccccc3)C(C)O)c(=O)[nH]2)cc1OC (stereo not drawn) | 85 |
| NCCCCCC(=O)NC(CCCCN)C(=O)N(NC(=O)OCc1ccccc1)C(=O)OCc1ccccc1 (stereo not drawn) | 167 to 168 |
| CC(C)Nc1cccnc1N1CCN(C(=O)c2ccc(C(=O)N[C@H](C)CO)cn2)CC1 | 129 to 130 |
| CC1(C)CCC(C)(C)c2cc(C(=O)Nc3ccc(OCCN4CCOCC4)cc3)ccc21 | 134 to 136 |
| COc1cc(Br)c(CCC#N)cc1OC | 78 to 80 |
| OCc1cnc2ccc(Cl)cc2c1O | > 300 |
| COc1ccc(NC(=O)Cc2ccc(Cl)cc2)c(OC)c1 | 134 to 135 |
| CCCCCc1cc2c(nc(O)n2CCCCS(C)(=O)=O)c(N)n1 | 188 to 189 |
| NCC(=O)NCCCn1cc(-c2ccccc2)c2ccccc2c1=O | 141 |
| C#CCN1CCc2ccc([N+](=O)[O-])cc2CC1 | 122 to 125 |
| O=C1NC(=S)SC1=C(c1ccccc1)c1ccccc1 | 192 to 194 |
| CC1(C)SC2C(N3C(=O)c4ccccc4C3=O)C(=O)N2C1C(=O)OCc1ccc([N+](=O)[O-])cc1 (stereo not drawn) | 233 to 234 |
| CCOC(=O)c1cc2cc(OCCCS(C)(=O)=O)cc(NS(=O)(=O)c3ccccn3)c2[nH]1 | 194 to 195 |
| CC(C)(C)c1cc2c(s1)C(=O)N(c1cccc(Br)c1CO)C2 | 55 to 56 |
| Cc1cc(O)n2nc(SCc3ccccc3)nc2c1 | 214 to 216 |
| CCC=C(NC(=O)C1CC1(C)C)C(=O)O (stereo not drawn) | 154 to 156 |
| O=C(O)c1cc(C(c2cc(F)ccc2F)S(=O)(=O)c2ccc(Cl)cc2)c(Cl)cn1 (stereo not drawn) | 94 to 96 |
| O=C(Cc1ccc(Cl)cc1)c1cccs1 | 98 to 99 |
| CC(=O)OC[C@@H]1C=C[C@H](n2cnc3c(Cl)nc(N)nc32)C1 | 124 to 127 |
| CCOC(=O)c1cccc(-c2ccc3c(n2)C(O)CC3)c1 (stereo not drawn) | 46 to 47 |
| O=C(NCc1ccccc1)c1ccccc1I | 122 to 123 |

| Compound | melting point [°C] |
| --- | --- |
| COC1CN(C(=O)c2cc(-c3ccccc3)c(=O)n3c2-c2cc(Cl)ccc2CN3)C1 | 238 to 239 |
| CCCCCC(C)C(C)c1cc(O)c2c(c1)OC(C)(C)C1=C2CN(CC(=O)N(C)C)CC1 (stereo not drawn) | 122 to 124 |
| CCOC(=NC(=O)c1ccc(-c2ccccc2)cc1)N1Cc2ccccc2-c2ccccc2C1 | 52 to 58 |
| Cc1[nH]c2cccc(NC(=O)NCc3ccc(Br)cc3)c2c1C | 190 |
| Cc1cccc(-c2nc(NC(=O)c3cccnc3)sc2-c2ccnc(NCc3ccccc3)c2)c1 | 220 to 222 |
| CC(=O)NC(Cc1ccccc1)C(=O)OCc1cc(C)cc(C)c1 (stereo not drawn) | 97 to 100 |
| CC(C)(C)OC(=O)N1CCC(C2=C(C#N)C(c3cccc(C#N)c3Br)c3c[nH]nc3N2)CC1 (stereo not drawn) | > 270 |
| COc1ccc(C(=O)C=CC(=O)O)cc1OC | 174 to 175 |
| O=C1NC(=O)C(c2c[nH]c3ccccc23)N1 (stereo not drawn) | 229 to 230 |
| CCOC(=O)Cc1cnc(N=C2SCC3Cc4ccccc4CN23)s1 (stereo not drawn) | 132 |
| COC(=O)c1ccccc1N=CNc1nnn[nH]1 | 199 to 200 |
| Cc1[nH]cnc1CCCCNC(=N)N | 152 to 154 |
| O=CC1=CC(c2ccccc2)(c2ccccc2)CCC1=O | 126 |
| CCCc1nn(C)c2c(=O)[nH]c(Cc3ccc(N(CC)C(C)=O)cc3)nc12 | 149 to 151 |
| O=c1cc(N2CCOCC2)[nH]c2c(-c3ccc([N+](=O)[O-])c4c3oc3ccccc34)cccc12 | 247 |
| COc1cc(N)c(Cl)cc1C(=O)NCC1CCN(CCCCCC(=O)c2ccc(O)cc2O)CC1 | 96 to 99 |
| O=C(O)c1ccc2c(c1)C(=O)c1cc3c(cc1OC2)OCO3 | 320 to 321 |
| CC(C)c1ccc(N)c(C(=O)NCC2CCN(C(c3ccccc3)c3ccccc3)CC2)c1 | 114 to 116 |
| O=C(CNC(=O)c1ccc([N+](=O)[O-])c(F)c1)OCc1ccccc1 | 118 to 120 |
| CCC(CC)C(NC(=O)c1ccc(Cl)cc1)NC(=C[N+](=O)[O-])Nc1cccnc1 (stereo not drawn) | 192 to 193 |
| Cc1c(I)sc(I)c1Br | 81 to 82 |
| COC(=O)c1ccc(C(Cc2cc(C)ccc2N2CCCCC2)C(N)=O)cc1 (stereo not drawn) | 124 to 126 |
| CS(=O)(=O)N1CCC(Nc2nc(Nc3ccc(F)c(C(=O)N4CCOCC4)c3)nc(OCC(F)(F)F)n2)CC1 | 217 to 219 |
| COC(=O)C1=C(C)NC(C)=C(c2nc(N(C)Cc3ccccc3)no2)C1c1cccc([N+](=O)[O-])c1 (stereo not drawn) | 182 to 184 |
| COC(=O)c1ccccc1OCC(O)CNC(C)(C)CNC(N)=O (stereo not drawn) | 62 |
| OCCc1nc(NCc2ccccn2)c2c(-c3ccccc3)csc2n1 | 90 to 92 |

| Compound | melting point [°C] |
| --- | --- |
| Cc1cc(C)cc(P(=O)(O)c2cc(C)cc(C)c2)c1 | 256 to 261 |
| CCSc1cc(C)nc(SCC)c1NC(=O)CCCCCCCSc1nc2ccccc2[nH]1 | 166 to 168 |
| CN(c1cccc2cc(-c3ncc(CCC(=O)N4CCOCC4)s3)[nH]c12)S(=O)(=O)c1cccs1 | 160 to 161 |
| O=S(=O)(c1ccccc1)n1cc(I)c2c(OC3CCCCC3)ccnc21 | 112 to 114 |
| CC(=O)Oc1ccc(-n2cc(C(=O)O)c(=O)cc2-c2ccc(N(C)C)cc2)cc1 | 128 to 131 |
| COc1cnc(CO)c(C)c1OC | 91 to 92 |
| Nc1ccc(S(=O)(=O)N2CCN(c3ccc(F)cc3)CC2)cc1 | 180 to 182 |
| CC(=O)OCC1OC(n2nnnc2Cl)C(OC(C)=O)C(OC(C)=O)C1OC(C)=O (stereo not drawn) | 172 |
| CC(=O)c1ccc(C(=O)N2Cc3cccn3Cc3ccccc32)c(Cl)c1 | 98 to 100 |
| CCc1scc2c1CN(S(=O)(=O)c1ccc(C)cc1)C2 | 117 to 120 |
| C=C1SC(=O)N(c2ccc3cc(-c4ccc(OC)c(C(C)(C)C)c4)ccc3c2)C1=O | 274 to 276 |
| COc1cc(C(C)=O)ccc1OCCN1CCN(c2n[nH]c3cc(Cl)ccc23)CC1 | 154 to 156 |
| CCc1c(C(=O)c2cc(C)cc(C#N)c2)[nH]c(=O)[nH]c1=O | 253 to 254 |
| O=C(O)c1ccc(OCc2ccc3ccccc3n2)cc1 | > 300 |
| CCOC(=O)c1cc2c3n(ccc-2n1)CC(c1ccccc1)=N3 | 255 to 257 |
| O=C(Cc1cccc2ccccc12)Nc1cc([C@H]2C[C@@H](NC(=O)c3ccccc3)C2)[nH]n1 | 194 |
| O=C(Nc1ccc(-c2ccc3c(NC(=O)c4ccccc4)n[nH]c3c2F)cc1)Nc1cc(C(F)(F)F)ccc1F | 206 to 207 |
| NP(N)(=O)NC(=O)c1cccnc1 | 280 to 283 |
| CC1(C)Oc2c(ccc3ccccc23)C2OC21 (stereo not drawn) | 120 to 121 |
| CC(=O)Nc1cccc(-c2cnc(N(C)C)nc2)c1 | 183 to 188 |
| Cc1cccc(Nc2ncnc3cc(NCCCN(C)C)c(N)cc23)c1 | 60 to 66 |
| COCCCNC(=O)c1cc(C(=O)OC)c(O)c2ncc(Cc3ccc(F)cc3)cc12 | 166 to 167 |
| CC(C)(C)c1cc(CN)n(NCC(F)(F)F)n1 | 80 to 83 |
| CC(=O)N1CCc2cccc(Cl)c2CC1 | 64 to 66 |
| COCOCCCOn1cnc2cnc(NC=O)nc21 | 115 to 116 |

From a melting point compilation (Tetko et al.; mined from patent text by program, amines drawn as free bases though some values may be those of a salt)
